Results published in patent publication US20230087994A1, “TARGETED BIFUNCTIONAL DEGRADERS” (YALE UNIVERSITY, priority 2019, published 2023).

What was measured:
[1] = molecular target: T1, asialoglycoprotein receptor (ASGPR) on the surface of immortalized human hepatocyte HepG2 cells (human) (UniProt P07306); assay: cell-based or functional assay
T1 sequence (looked up) 1: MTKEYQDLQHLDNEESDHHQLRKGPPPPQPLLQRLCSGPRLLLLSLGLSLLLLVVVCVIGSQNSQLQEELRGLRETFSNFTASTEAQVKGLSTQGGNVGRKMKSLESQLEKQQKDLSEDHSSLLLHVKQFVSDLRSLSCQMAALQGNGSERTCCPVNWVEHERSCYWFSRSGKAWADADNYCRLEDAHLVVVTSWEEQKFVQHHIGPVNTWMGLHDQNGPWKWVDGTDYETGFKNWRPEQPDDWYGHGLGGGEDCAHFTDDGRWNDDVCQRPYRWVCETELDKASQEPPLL
T1 sequence (looked up) 2: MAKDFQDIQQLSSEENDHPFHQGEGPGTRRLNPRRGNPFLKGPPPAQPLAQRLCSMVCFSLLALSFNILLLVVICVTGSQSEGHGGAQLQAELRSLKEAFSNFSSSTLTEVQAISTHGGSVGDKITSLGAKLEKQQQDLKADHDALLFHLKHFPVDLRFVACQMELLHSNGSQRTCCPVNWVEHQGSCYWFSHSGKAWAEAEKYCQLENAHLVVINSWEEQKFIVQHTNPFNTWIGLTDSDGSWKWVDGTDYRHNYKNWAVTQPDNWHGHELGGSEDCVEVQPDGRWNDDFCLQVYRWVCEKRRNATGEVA

[2] = molecular target: T1, asialoglycoprotein receptor (ASGPR) on the surface of immortalized human hepatocyte HepG2 cells (human); assay: competition, flow cytometry on HepG2 cells against 40 nM DNP-AF3 and 100 nM α-DNP antibody
[3] = molecular target: T1, asialoglycoprotein receptor (ASGPR) on the surface of immortalized human hepatocyte HepG2 cells (human); assay: competition, flow cytometry: inhibition of DNP-GN3-mediated association of fluorescent α-DNP antibody with HepG2 cells in suspension (ASGPR on cells)
[4] = test system: HepG2 cells; assay: DNP-GN3-mediated endocytosis of fluorescently labeled α-DNP antibody by adherent HepG2 cells; format: cell-based, human; settings: DNP-GN3-mediated uptake; FIG. 89
Description: It was next explored whether DNP-GN3 mediates the endocytosis of fluorescently labeled α-DNP antibody.
To explore the cellular mechanism of antibody uptake, cells were treated with chemical inhibitors of several endocytic pathways (FIG. 89).

[5] = test system: HepG2 cells; assay: DNP-AF3-mediated endocytosis of fluorescently labeled α-DNP antibody by HepG2 cells (flow cytometry); format: cell-based, human; settings: 40 nM DNP-AF3, 100 nM antibody; FIG. 106
Description: The intracellular fluorescence of cells that were incubated at 37° C. with both fluorescently labeled α-DNP antibody and DNP-AF3 for a given amount of time was examined. Cells were then washed, removed from the plate with trypsin, and subjected to flow cytometry. Trypsin treatment is expected to cleave ASGPR and surface-bound α-DNP antibody from cells, and therefore the cellular fluorescence observed in these assays is expected to arise only from internalized antibodies.
It was then determined if reagents which inhibit ternary complex formation inhibit endocytosis mediated by DNP-AF3. In order to account for non-specific antibody association with cells, the mean fluorescence intensity of an aliquot of cells which had been treated with α-DNP antibody but not DNP-AF3 was subtracted from each reading. […] In the presence of 2.38 μM (0.1 mg/mL) ASOR, the cell population fluorescence was decreased to 4.66e5 (FIG. 105); at this ASOR concentration, ternary complex formation is decreased by approximately 70%. Because ternary complex is not inhibited completely at this concentration of ASOR, it is expected that productive endocytic events are still taking place.

[6] = test system: HepG2 cells; assay: MIF-GN3-mediated endocytosis of fluorescently labeled human MIF by HepG2 cells; settings: for effect of endocytic pathway inhibitors on MIF-GN3-mediated MIF endocytosis: 100 nM MIF, 200 nM MIF-GN3, FIG. 132
Description: Human MIF protein was fluorescently labeled with Alexa 488 NHS ester, then incubated with HepG2 cells in the presence of varying levels of MIF-GN3.
Next, inhibitors of various endocytic pathways were utilized to determine if MIF-GN3 mediates MIF endocytosis in a manner consistent with ASGPR (FIG. 132).

[7] = molecular target: human IgG (fluorescently labeled) (human); assay: cell-based or functional assay
[8] = molecular target: T2, human MIF (Homo sapiens, UniProt P14174); assay: Depletion of injected recombinant human MIF from serum in mice; format: in vivo; design: injected into mice; settings: control molecules; FIG. 136
T2 sequence (P14174 2-115 limits assumed): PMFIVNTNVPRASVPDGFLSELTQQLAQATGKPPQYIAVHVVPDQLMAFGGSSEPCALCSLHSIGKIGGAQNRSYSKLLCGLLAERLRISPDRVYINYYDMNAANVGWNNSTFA
Description: In vivo human MIF depletion experiments were undertaken to determine whether MIF-GN3 can mediate the depletion of injected recombinant human MIF from serum in mice. Mice were injected with five μg of the human MIF protein. In this experiment, one group of mice was also injected with a single 10 mpk dose of MIF-GN3 along with human MIF protein. It was observed that after four hours, the average level of human MIF in serum in the PBS-treated mice was 1.76 ng/mL (FIG. 134). In mice treated with 10 mpk MIF-GN3, however, the concentration of human MIF in serum was 0.68 ng/mL. One day after the initial injection, human MIF levels had reached background levels for both conditions. […] It was hypothesized that, due to the short half-life of human MIF in serum, investigating human MIF levels at earlier time points may be more informative.
Next, an experiment was performed to determine whether MIF-GN3 could enhance MIF clearance at time points earlier than four hours. Mice were coinjected with recombinant human MIF and 10 mpk MIF-GN3 via either i.p. or i.v. routes. For the PBS control arms, human MIF was injected with PBS. It was observed that in the absence of MIF-GN3, there was a spike in huMIF levels in circulation after 30 minutes (FIG. 135). In the presence of MIF-GN3, however, levels of MIF protein remained low at 30 minutes and no spike in its concentration was observed. By two hours, the levels of human MIF in circulation decreased to background levels. […] In a further experiment, whether an inhibitor of the MIF protein (3w) is able to mediate the protein's depletion from serum was determined. A bifunctional molecule that mediates the depletion of α-DNP antibody from serum was also assayed as a negative control. Neither of these molecules was expected to mediate the formation of a ternary complex between human MIF protein and ASGPR.
In order to confirm that mice injected with one or ten mpk MIF-GN3 had received the injection, and that the observed stability of MIF concentrations in MIF-GN3 treated mice was not the result of injection error, 200 μg of α-DNP antibody was coinjected with the MIF protein in this experiment. […] An investigation of the ability of MIF-GN3 to mediate the depletion of endogenous mouse MIF in vivo was next undertaken. Mice were treated with either PBS or 10 mpk of MIF-GN3. […] One possible explanation for this finding is that MIF protein may be synthesized rapidly, and any increase in degradation mediated by MIF-GN3 may not be of a large enough magnitude to impact the protein's level in serum.

[9] = test system: PC3 cells; assay: Human prostate cancer PC3 tumor growth in mice; format: in vivo; settings: control and comparator arms; FIG. 138
Description: The ability of MIF-GN3 to mediate the depletion of MIF in a therapeutically relevant disease model was investigated. […] An experiment was conducted to determine whether the bifunctional molecule MIF-GN3 can deplete sufficient human MIF from serum to slow PC3 tumor growth. Mice were injected with an aliquot of PC3 cells, and the size of the resultant tumors as well as the levels of human MIF in serum were monitored over five weeks. […] Five weeks after the initial PC3 cell injection, the first of the mice reached maximal tumor size ([…]) and was sacrificed (FIG. 138). […] The decrease in human MIF levels mediated by MIF-GN3 is consistent with a mechanism of action in which MIF-GN3 mediates the depletion and degradation of circulating MIF protein. While the α-MIF antibody would not necessarily be expected to decrease the levels of human MIF, it is possible that the antibody mediates MIF neutralization in a manner which masks its signal as determined by ELISA. Alternatively, the α-MIF antibody may mediate depletion or degradation of huMIF by some endocytic mechanism. Another possible explanation is that the α-MIF antibody decrease serum levels of active human MIF to such an extent at early time points that PC3 cells proliferate much more slowly, and therefore fewer cells are actively secreting human MIF.
Mice were sacrificed when their tumor volumes reached 1000 mm^3. […] At this same time point, less than 25% of the mice in any other arm had survived.

[10] = molecular target: T2, human MIF; assay: Depletion of human MIF from cell culture supernatant (sandwich ELISA); format: cell-based; design: host or cells: exogenous protein added to cell culture; settings: 24 hours; FIG. 128B
Description: The ability of bifunctional MIF-binding molecules to mediate the depletion of human MIF from cell culture was investigated. In these assays, human MIF was present at a concentration of 100 nM, and a sandwich ELISA assay was utilized to measure the concentration of human MIF remaining in the cell culture supernatant. The closely related bifunctional molecules MIF-GN3, MIF-PEG2-GN3, and MIF-PEG4-GN3 were used, as well as the structurally dissimilar molecule MIF-NVS-PEG3-GN3. […] Based on the ease of its synthesis and its efficacy in this experiment, MIF-GN3 was utilized for further studies. It was next investigated whether the MIF inhibitor 3w mediates MIF depletion from cell culture supernatant. […] When cells were treated with 3w, no depletion of exogenous MIF protein was observed after 24 hours (FIG. 128B).

asialoorosomucoid (ligand)
mean fluorescence of the HepG2 cell population (DNP-AF3-mediated α-DNP antibody endocytosis) in the presence of 2.38 µM (0.1 mg/mL) ASOR; approximately 1.31e6 without inhibitor (mean fluorescence) [1]: 466000
percent decrease of ternary complex formation at 2.38 µM (0.1 mg/mL) ASOR [2]: 70%
IC50 [3]: 0.017 µM

C[C@@H]1[C@H](O)[C@@H](C)/C=C/C=C/CC/C=C/C=C/C=C/C=C/C(O[C@H]2O[C@H](C)[C@@H](O)[C@H](N)[C@@H]2O)CC2O[C@](O)(CC(O)C(O)CCC(O)CC(O)CC(O)CC(=O)O[C@H]1C)CC(O)C2C(=O)O (stereo partly shown) [nystatin, Nystatin]
effect of endocytic pathway inhibitors on intracellular fluorescence [4]: did not significantly decrease
effect of endocytic pathway inhibitors on fluorescence of the cell population [5]: did not significantly decrease
effect of endocytic pathway inhibitors on MIF-GN3-mediated MIF endocytosis [6]: did not decrease

N=C(N)NC(=O)c1nc(Cl)c(N)nc1N [amiloride, Amiloride]
effect of endocytic pathway inhibitors on intracellular fluorescence [4]: did not significantly decrease
effect of endocytic pathway inhibitors on fluorescence of the cell population [5]: A decrease in cellular fluorescence
effect of endocytic pathway inhibitors on MIF-GN3-mediated MIF endocytosis [6]: did not impact cellular fluorescence significantly

C=C1[C@@H](C)[C@H]2[C@H](Cc3ccccc3)NC(=O)[C@]23[C@H](OC(C)=O)/C=C/[C@@](C)(O)C(=O)[C@@H](C)C/C=C/[C@H]3[C@@H]1O [cytochalisin D (CytD)]
effect of endocytic pathway inhibitors on fluorescence of the cell population [5]: non-significant decrease

COc1ccc2c(c1)c(CC(=O)O)c(C)n2C(=O)c1ccc(Cl)cc1 [indomethacin, Indomethacin]
effect of endocytic pathway inhibitors on fluorescence of the cell population [5]: did not significantly decrease
effect of endocytic pathway inhibitors on MIF-GN3-mediated MIF endocytosis [6]: did not decrease

FcIII-BCN-GN3 (peptide)
endocytosis of human IgG by HepG2 cells over time and concentration: most effective FcIII-BCN-GN3 concentration [7]: 1 µM

CCN(CC)CCCC(C)Nc1ccnc2cc(Cl)ccc12 (stereo not shown) [chloroquine, Chloroquine]
effect of endocytic pathway inhibitors on intracellular fluorescence [4]: significantly decreased
effect of endocytic pathway inhibitors on MIF-GN3-mediated MIF endocytosis [6]: near background levels

FcIII-GN3 (oxidized cyclized form) (peptide)
endocytosis of Alexa 488-labeled human IgG by HepG2 cells (flow cytometry, six hours): FcIII-GN3 concentration giving maximal uptake [7]: 200 nM

O=c1c(-c2ccc(O)cc2)coc2cc(O)cc(O)c12 [genistein, Genistein]
effect of endocytic pathway inhibitors on fluorescence of the cell population [5]: did not significantly decrease
toxicity to cells ([6]; HepG2 cells with MIF and MIF-GN3): toxic to cells

Oc1ccc(-n2cc(-c3ccc4cc(OCCOCCN5CCOCC5)ccc4n3)nn2)cc1F [Compound 3w, reference compound]
human MIF concentration in serum compared to the PBS control [8]: no significant decreases
PC3 tumor growth [9]: not found to decrease tumor growth
depletion of exogenous MIF protein from supernatant [10]: no depletion

B1: asialofetuin (ligand, UniProt P12763 19-359, looked up, species assumed)
Alpha-2-HS-glycoprotein: IPLDPVAGYKEPACDDPDTEQAALAAVDYINKHLPRGYKHTLNQIDSVKVWPRRPTGEVYDIEIDTLETTCHVLDPTPLANCSVRQQTQHAVEGDCDIHVLKQDGQFSVLFTKCDSSPDSAEDVRKLCPDCPLLAPLNDSRVVHAVEVALATFNAESNGSYLQLVEISRAQFVPLPVSVSVEFAVAATDCIAKEVVDPTKCNLLAEKQYGFCKGSVIQKALGGEDVRVTCTLFQTQPVIPQPQPDGAEAEAPSAVPDAAGPTPSAAGPPVASVVVGPSVVAVPLPLHRAHYDLRHTFSGVASVESSSGEAFHVGKTPIVGQPSIPGGPVRLCPGRIRYFKI
modifications: desialylated
IC50 [3]: 0.065 µM
